According to BindingDB's records for doi:10.1021/np070259w (Institute of Plant Biochemistry, 2007):
Structures can show the parent of a compound that is named as a salt.

Assay: Inhibition of equine BChE at 100 uM by Ellman's method

For `CNC(=O)Oc1ccc2c(c1)[C@]1(C)CCN(C)[C@@H]1N2C` [(3aS,8aR)-1,3a,8-trimethyl-1,2,3,3a,8,8a-hexahydropyrrolo[2,3-b]indol-5-yl methylcarbamate hydrochloride], the IC50 was 3.5 µM.
